PubChem BioAssay AID1329 (NMMLSC, 2008)
The source made the active and inactive calls. No rule for the calls is given here.

biological target: Induced myeloid leukemia cell differentiation protein Mcl-1 (Homo sapiens) (UniProt Q07820); assay: modulators of Bim peptide binding to Mcl-1, dose response, biochemical, bead-based flow cytometry, multiplexed, human (AID 1329); conditions: Bim peptide-Mcl-1 binding, MCF
Sequence (Q07820 whole entry, looked up): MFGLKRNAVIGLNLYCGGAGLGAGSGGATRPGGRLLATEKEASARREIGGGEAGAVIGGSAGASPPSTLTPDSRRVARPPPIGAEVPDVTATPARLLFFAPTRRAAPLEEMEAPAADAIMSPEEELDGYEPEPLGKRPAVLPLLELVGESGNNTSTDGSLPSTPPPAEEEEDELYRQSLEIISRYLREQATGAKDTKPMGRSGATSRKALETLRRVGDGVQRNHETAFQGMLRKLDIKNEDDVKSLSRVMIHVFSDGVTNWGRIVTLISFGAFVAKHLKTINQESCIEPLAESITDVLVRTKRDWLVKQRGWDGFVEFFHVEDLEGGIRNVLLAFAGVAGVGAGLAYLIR

Row | percent span | SMILES
1 | inactive | CCc1ccc(/C=C/C(=O)c2cc(Br)ccc(=O)c2O)cc1
2 | inactive | Cc1ccc(O)c(NC2=C(Cl)C(=O)N(Cc3ccccc3)C2=O)c1
3 | inactive | CCOC(=O)c1cc2c(=O)n3ccccc3nc2n(Cc2ccco2)c1=NC(=O)c1ccccc1OC
4 | inactive | Cn1c(CCNC(=O)C2CCCCC2)nc2cc(NC(=O)c3cccs3)ccc21
5 | inactive | O=C(OCC(=O)c1ccc[nH]1)c1ccccc1
6 | inactive | CCN1/C(=C/c2ccc3cc(C)cc(C)c3[n+]2CC)Sc2cc(C)ccc21
7 | inactive | Cc1ccc(NC(=O)C/C(N)=N/OC(=O)c2ccccc2)cc1
8 | inactive | COc1cc(OC)c([N+](=O)[O-])cc1/C=N/NC(=O)c1ccncc1
9 | inactive | COc1cc(NC(=S)NC(=O)c2cc(C)cc(C)c2)ccc1NC(=O)c1cccs1
10 | inactive | Cn1c(=O)c2cc(S(=O)(=O)Nc3cc(C(=O)O)cc(C(=O)O)c3)ccc2n(C)c1=O
11 | inactive | CCOC(=O)c1sc(NC(=O)c2ccncc2)c(C#N)c1C
12 | inactive | C(=C\c1ccccc1)/CSc1nnc(-c2ccccn2)n1Cc1ccco1
13 | inactive | CCN(CC)c1ccc(NC(=O)c2ccccc2F)cc1S(=O)(=O)Nc1ccccc1OC
14 | inactive | Cc1cc(-c2cc(-c3ccc(Cl)cc3)nc(N)c2C#N)co1
15 | inactive | Cc1cc(C)c(C)c(S(=O)(=O)N2CCN(CC(=O)NC(=O)NCc3ccccc3)CC2)c1C
16 | inactive | O=C(O)c1ccc(NC2=C/C(=N/S(=O)(=O)c3ccccc3)c3ccccc3C2=O)cc1

Row | percent span | SMILES
17 | inactive | COc1ccc(/C=C2\SC(=O)NC2=S)cc1OC
18 | inactive | CCOc1ccc(C(=O)Nc2nnc(NC(=S)Nc3ccccc3)s2)cc1
19 | inactive | CCCCc1ccc(NC(=S)NCc2ccc(OC)cc2)cc1
20 | inactive | Cc1ccc(-c2cc(-c3ccc(F)cc3)c(C#N)c(N)n2)o1
21 | inactive | Clc1nssc1=Nc1ccc(Br)cc1
22 | inactive | COc1ccccc1Cn1nnc2c(=O)[nH]c(C3CCN(C(=O)c4ccc(C)cc4)CC3)nc21
23 | inactive | O=C(Nc1nnc(COc2ccc(Cl)cc2)s1)c1ccco1
24 | inactive | C/C(=N\NC(=O)COc1ccc(C#N)cc1)c1ccccc1OC(F)F
25 | inactive | CC1=CC(=O)c2ccccc2C1=O
26 | inactive | O=C(NC1=C(Nc2ccc(Cl)cc2)C(=O)c2ccccc2C1=O)c1ccccc1
27 | inactive | COc1ccc(NC(=O)c2cccs2)cc1
28 | inactive | COc1ccc(Cc2c(O)nc(SC)n(C(C)=O)c2=O)cc1
29 | inactive | CCN(CC)c1ccc(NC2=C(Cl)C(=O)c3ccccc3C2=O)cc1
30 | inactive | COc1ccc(/C=C(/C(=O)c2cccs2)N2C=CC=CC2=C(C#N)C#N)cc1
31 | inactive | COc1cc(C2Nc3cccc4cccc(c34)N2)cc(OC)c1O

Second part, the compound before the results:

Row | SMILES | percent span
32 | CC1N(C)c2cccc3cccc(c23)N1C | inactive
33 | O=C(N/N=C/c1cccnc1)c1cccc(S(=O)(=O)N2CCCC2)c1 | inactive
34 | N#Cc1cccc(N=c2ssnc2Cl)c1 | inactive
35 | Nc1ccccc1N=c1ssnc1Cl | inactive
36 | O=[N+]([O-])c1cccc(S(=O)(=O)NCC2CCCO2)c1 (configuration not stated) | inactive
37 | Cn1c(CNc2nc(-c3ccccc3)cs2)nnc1SCC(=O)N1CCc2ccccc21 | inactive
38 | CSc1nnc2ccc(-c3cccs3)nn12 | inactive
39 | CS(=O)(=O)NN1C(=O)c2ccccc2NC1c1cccs1 (configuration not stated) | inactive
40 | CC(C)CCN1CCN(Cc2cccc3cccnc23)CC1CCO (configuration not stated) | inactive
41 | O=C(NCCCN1CCN(CCCNC(=O)c2cc([N+](=O)[O-])ccc2Cl)CC1)c1cc([N+](=O)[O-])ccc1Cl | inactive
42 | Cc1nc(=S)c2ccccc2[nH]1 | inactive
43 | CC(CCc1ccccc1)NC(=O)C1CCN(S(=O)(=O)N2CCCCC2)CC1 (configuration not stated) | inactive
44 | Cc1cc(Cl)c(S(=O)(=O)NCC2CCCO2)cc1OCC(N)=O (configuration not stated) | inactive
45 | NC(=O)c1c(NC(=O)C2CCCO2)sc2c1CCCCC2 (configuration not stated) | inactive
46 | Fc1ccccc1-n1cc(-c2ccccc2)[nH]c1=S | inactive
47 | O=C(NCCCN1CCCC1=O)NC1CCCCC1 | inactive
48 | Cc1csc(SCCn2c(N3CCN(c4ccccc4)CC3)nc3c2c(=O)[nH]c(=O)n3C)n1 | inactive
49 | O=C(COC(=O)CCCN=C1NS(=O)(=O)c2ccccc21)NC(=O)NC1CCCC1 | inactive
50 | Cc1cc(C)c2c(N)c3cccc(C)c3nc2n1 | inactive
51 | C#CCOCCOCCOCCNc1nc(N2CCN(C(=O)[C@H](CCCCN)n3cc(CCCC)nn3)CC2)nc(N2CCN(C(=O)[C@H](Cc3ccc(O)cc3)n3cc(CCO)nn3)CC2)n1 | inactive
52 | O=C(CC1NCCNC1=O)Nc1cccc([N+](=O)[O-])c1 (configuration not stated) | inactive
